Measured values reported in PubChem BioAssay (NCI).
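Briefly, cells in 96-well plates were exposed to five compound concentrations for 48 h, and endpoints were estimated by linear interpolation. GI50 marks 50% less growth. TGI: concentration producing complete growth inhibition.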

Key:
Assay in all cases: NCI tumour cell line growth inhibition, 48 h
NCI-H460 lung = system: NCI-H460 lung
MOLT-4 leukemia = system: MOLT-4 leukemia
OVCAR-8 ovarian = system: OVCAR-8 ovarian
NCI-H522 lung = system: NCI-H522 lung
NCI-H226 lung = system: NCI-H226 lung
HS 578T breast = system: HS 578T breast
LOX IMVI melanoma = system: LOX IMVI melanoma
DU-145 prostate = system: DU-145 prostate
UO-31 renal = system: UO-31 renal
MDA-MB-231 breast = system: MDA-MB-231 breast
HCT-15 colon = system: HCT-15 colon
HOP-62 NSCLC = system: HOP-62 NSCLC
HOP-92 NSCLC = system: HOP-92 NSCLC
T-47D breast = system: T-47D breast
HCT-116 colon = system: HCT-116 colon
UACC-62 melanoma = system: UACC-62 melanoma
U251 CNS = system: U251 CNS
SF-295 CNS = system: SF-295 CNS
OVCAR-5 ovarian = system: OVCAR-5 ovarian
A549 NSCLC = system: A549 NSCLC
SNB-75 CNS = system: SNB-75 CNS
SK-MEL-5 melanoma = system: SK-MEL-5 melanoma
SK-OV-3 ovarian = system: SK-OV-3 ovarian
MDA-MB-435 = system: MDA-MB-435
BT-549 breast = system: BT-549 breast
SF-539 CNS = system: SF-539 CNS
TK-10 renal = system: TK-10 renal
K-562 leukemia = system: K-562 leukemia
COLO 205 colon = system: COLO 205 colon

## Cc1ccc(C(=O)Nc2ccc(CNCCN3CCOCC3)c(C(F)(F)F)c2)cc1C#Cc1cnc2cccnn12
NCI-H460 lung
  GI50: 1.76 µM
  TGI: 3.9 µM
MOLT-4 leukemia
  GI50: 1.31 µM
  TGI: 5.37 µM
OVCAR-8 ovarian
  GI50: 3.09 µM
  TGI: 10.8 µM
NCI-H522 lung
  GI50: 1.99 µM
  TGI: 5.22 µM
NCI-H226 lung
  GI50: 1.66 µM
  TGI: 7.59 µM
HS 578T breast
  GI50: 1.81 µM
  TGI: 5.24 µM
LOX IMVI melanoma
  GI50: 0.515 µM
  TGI: 1.87 µM
DU-145 prostate
  GI50: 2.92 µM
  TGI: 8.19 µM
UO-31 renal
  GI50: 1.45 µM
  TGI: 3.47 µM
MDA-MB-231 breast
  GI50: 1.15 µM
  TGI: 3.19 µM
HCT-15 colon
  GI50: 0.925 µM
  TGI: 4.9 µM
HOP-62 NSCLC
  GI50: 2.16 µM
  TGI: 6.55 µM
HOP-92 NSCLC
  GI50: 0.761 µM
  TGI: 3.12 µM
T-47D breast
  GI50: 2.37 µM
  TGI: 6.73 µM
HCT-116 colon
  GI50: 0.5 µM
  TGI: 2.43 µM
UACC-62 melanoma
  GI50: 1.45 µM
  TGI: 3.43 µM
U251 CNS
  GI50: 1.84 µM
  TGI: 4.65 µM
SF-295 CNS
  GI50: 1.62 µM
  TGI: 3.57 µM
OVCAR-5 ovarian
  GI50: 1.85 µM
  TGI: 8.17 µM
A549 NSCLC
  GI50: 2.54 µM
  TGI: 10.6 µM
SNB-75 CNS
  GI50: 0.0644 µM
  TGI: 0.778 µM
SK-MEL-5 melanoma
  GI50: 1.45 µM
  TGI: 2.81 µM
SK-OV-3 ovarian
  GI50: 3.91 µM
  TGI: 13.6 µM
MDA-MB-435
  GI50: 0.746 µM
  TGI: 2.32 µM
BT-549 breast
  GI50: 2.27 µM
  TGI: 4.56 µM
SF-539 CNS
  GI50: 1.32 µM
  TGI: 2.67 µM
TK-10 renal
  GI50: 2.61 µM
  TGI: 7.51 µM
K-562 leukemia
  TGI: 11.6 µM
COLO 205 colon
  GI50: 1.23 µM
  TGI: 3.82 µM
